Several values for one entry are separate records, joined by “and”; a condition that tells them apart may be missing. Identical values can stand only once. Toxic doses and inconclusive results are not listed.
System: BDF1 mice, P388 leukemia ip, median survival T/C
Experiment: NCI In Vivo Anticancer Drug Screen. Data for tumor model P388 Leukemia (intraperitoneal) in B6D2F1 (BDF1) mice
Settings: endpoint: median survival time, higher = longer survival
Method in brief: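 Reported as T/C, where T is the survival measurement in dosed animals and C the same measurement in vehicle controls.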

[1] = dose: 50.0 mg/kg/injection, schedule: Q01DX009 (ip), vehicle: saline
[2] = dose: 100.0 mg/kg/injection, schedule: Q01DX009 (ip), vehicle: saline
[3] = dose: 100.0 mg/kg/injection, schedule: Q04DX003 (ip), vehicle: saline
[4] = dose: 200.0 mg/kg/injection, schedule: Q01DX009 (ip), vehicle: saline
[5] = dose: 200.0 mg/kg/injection, schedule: Q04DX003 (ip), vehicle: saline
[6] = dose: 25.0 mg/kg/injection, schedule: Q01DX009 (ip), vehicle: saline
[7] = dose: 100.0 mg/kg/injection, schedule: Q01DX009 (ip), vehicle: Klucel (hydroxypropylcellulose) (HPC)
[8] = dose: 100.0 mg/kg/injection, schedule: Q04DX003 (ip), vehicle: Klucel (hydroxypropylcellulose) (HPC)
[9] = dose: 200.0 mg/kg/injection, schedule: Q01DX009 (ip), vehicle: Klucel (hydroxypropylcellulose) (HPC)
[10] = dose: 200.0 mg/kg/injection, schedule: Q04DX003 (ip), vehicle: Klucel (hydroxypropylcellulose) (HPC)
[11] = dose: 400.0 mg/kg/injection, schedule: Q01DX009 (ip), vehicle: Klucel (hydroxypropylcellulose) (HPC)
[12] = dose: 400.0 mg/kg/injection, schedule: Q04DX003 (ip), vehicle: Klucel (hydroxypropylcellulose) (HPC)
[13] = dose: 50.0 mg/kg/injection, schedule: Q01DX009 (ip), vehicle: saline with Tween-80
[14] = dose: 100.0 mg/kg/injection, schedule: Q01DX009 (ip), vehicle: saline with Tween-80
[15] = dose: 200.0 mg/kg/injection, schedule: Q01DX009 (ip), vehicle: saline with Tween-80
[16] = dose: 100.0 mg/kg/injection, schedule: Q04DX003 (ip), vehicle: saline with Tween-80
[17] = dose: 200.0 mg/kg/injection, schedule: Q04DX003 (ip), vehicle: saline with Tween-80

CC1=NC(C(=O)O)C(=O)O1 (stereo not drawn)
T/C [1]: 109 % of control
T/C [2]: 104 % of control
T/C [3]: 95 % of control
T/C [4]: 100 % of control
T/C [5]: 100 % of control
T/C (dose: 400.0 mg/kg/injection, schedule: Q04DX003 (ip), vehicle: saline): 87 % of control

CN(S(=O)(=O)CC(F)(F)F)S(=O)(=O)C(F)(F)F
T/C (dose: 6.25 mg/kg/injection, schedule: Q01DX009 (ip), vehicle: saline): 100 % of control
T/C [6]: 108 % of control
T/C [2]: 100 % of control

COc1cc(OC)c(Br)c(OC)c1
T/C [7]: 100 % of control
T/C [8]: 112 % of control
T/C [9]: 100 % of control
T/C [10]: 104 % of control
T/C [11]: 116 % of control
T/C [12]: 100 % of control

N=C(N)SCc1c2ccccc2c(CSC(=N)N)c2ccccc12
T/C (dose: 2.5 mg/kg/injection, schedule: Q01DX010 (ip), vehicle: saline): 183 % of control
T/C (dose: 5.0 mg/kg/injection, schedule: Q01DX010 (ip), vehicle: saline): 220 % of control
T/C (dose: 10.0 mg/kg/injection, schedule: Q01DX010 (ip), vehicle: saline): 235 % of control and 195 % of control
T/C (dose: 20.0 mg/kg/injection, schedule: Q01DX010 (ip), vehicle: saline): 208 % of control and 215 % of control

O=c1[nH]nc(NCCO)c2ccccc12
T/C [13]: 112 % of control
T/C [14]: 91 % of control
T/C [15]: 102 % of control

O=C(O)Cn1c(C(F)(F)F)nc2nc(Cl)c(Cl)nc21
T/C [14]: 90 % of control
T/C [15]: 90 % of control
T/C (dose: 400.0 mg/kg/injection, schedule: Q01DX009 (ip), vehicle: saline with Tween-80): 100 % of control

NCCNCC[OH2+].NCCNCC[OH2+].[Cu+2].[O-][Cl+3]([O-])([O-])[O-]
T/C (dose: 12.5 mg/kg/injection, schedule: Q01DX009 (ip), vehicle: saline): 100 % of control
T/C [6]: 105 % of control

CCOC(=O)/C=C(C)/C=C/C=C(C)/C=C/c1c(C)cc(OC)c(C)c1C
T/C [13]: 96 % of control
T/C [14]: 91 % of control
T/C [15]: 98 % of control

CN(C)c1ccc(/C=C/c2ccnc3ccccc23)c(Cl)c1
T/C [13]: 102 % of control
T/C [14]: 96 % of control
T/C [15]: 88 % of control

O=C(O)C1(C(=O)O)CC2CC=CCC2C1 (stereo not drawn)
T/C [3]: 110 % of control
T/C [5]: 120 % of control

CC(O)C(C)(O)C(=O)O (stereo not drawn)
T/C [1]: 103 % of control
T/C [2]: 117 % of control
T/C [3]: 101 % of control
T/C [4]: 91 % of control
T/C [5]: 95 % of control
T/C (dose: 300.0 mg/kg/injection, schedule: Q01DX009 (ip), vehicle: saline): 99 % of control

O=C(Nc1ccc(NC(=O)Nc2ccc(C3=NCCCN3)cc2)cc1)Nc1ccc(C2=NCCCN2)cc1
T/C (dose: 8.3 mg/kg/injection, schedule: Q04DX003 (ip), vehicle: saline): 122 % of control
T/C (dose: 12.0 mg/kg/injection, schedule: Q04DX003 (ip), vehicle: saline): 122 % of control
T/C (dose: 19.0 mg/kg/injection, schedule: Q04DX003 (ip), vehicle: saline): 165 % of control
T/C (dose: 29.0 mg/kg/injection, schedule: Q04DX003 (ip), vehicle: saline): 175 % of control
T/C (dose: 65.0 mg/kg/injection, schedule: Q04DX003 (ip), vehicle: saline): 154 % of control
T/C (dose: 95.0 mg/kg/injection, schedule: Q04DX003 (ip), vehicle: saline): 163 % of control

CCOC(=O)C(Cc1ccc(N(CCCl)CCCl)cc1)NC=O (stereo not drawn)
T/C (dose: 66.0 mg/kg/injection, schedule: Q04DX003 (ip), vehicle: saline with Tween-80): 181 % of control
T/C [16]: 200 % of control and 209 % of control
T/C (dose: 150.0 mg/kg/injection, schedule: Q04DX003 (ip), vehicle: saline with Tween-80): 268 % of control and 272 % of control
T/C (dose: 375.0 micrograms/kg/injection, schedule: Q04DX003 (ip), vehicle: saline with Tween-80): 110 % of control
T/C (dose: 750.0 micrograms/kg/injection, schedule: Q04DX003 (ip), vehicle: saline with Tween-80): 120 % of control

COc1ccc(CCN2CSC(=S)N(CCc3ccc(OC)c(OC)c3)C2)cc1OC
T/C [7]: 100 % of control
T/C [9]: 110 % of control
T/C [11]: 94 % of control

c1ccc([B-]2([C+]3CCCCC3)N3CCCCC3C3CCCCN32)cc1 (stereo not drawn)
T/C (dose: 12.5 mg/kg/injection, schedule: Q01DX009 (ip), vehicle: Klucel (hydroxypropylcellulose) (HPC)): 119 % of control
T/C (dose: 25.0 mg/kg/injection, schedule: Q01DX009 (ip), vehicle: Klucel (hydroxypropylcellulose) (HPC)): 119 % of control

CC(C)C(=O)[O][Sn]([CH3])([CH3])[CH3]
T/C (dose: 0.75 mg/kg/injection, schedule: Q01DX009 (ip), vehicle: saline): 100 % of control
T/C (dose: 1.5 mg/kg/injection, schedule: Q01DX009 (ip), vehicle: saline): 91 % of control

CCCCCCCCCCOc1ccc(C=O)c(OC)c1
T/C (dose: 100.0 mg/kg/injection, schedule: Q01DX001 (ip), vehicle: Klucel (hydroxypropylcellulose) (HPC)): 100 % of control
T/C (dose: 200.0 mg/kg/injection, schedule: Q01DX001 (ip), vehicle: Klucel (hydroxypropylcellulose) (HPC)): 100 % of control
T/C (dose: 400.0 mg/kg/injection, schedule: Q01DX001 (ip), vehicle: Klucel (hydroxypropylcellulose) (HPC)): 104 % of control

NC(=S)N/N=C\c1nccc2c(C(F)(F)F)cccc12
T/C (dose: 25.0 mg/kg/injection, schedule: Q04DX003 (ip), vehicle: saline with Tween-80): 106 % of control

O=C1C=C(Nc2ccc(Cl)cc2)C(Nc2ccc(Cl)cc2)=CC1=O
T/C (dose: 62.5 mg/kg/injection, schedule: Q01DX009 (ip), vehicle: saline with Tween-80): 89 % of control
T/C (dose: 125.0 mg/kg/injection, schedule: Q01DX009 (ip), vehicle: saline with Tween-80): 87 % of control
T/C (dose: 250.0 mg/kg/injection, schedule: Q01DX009 (ip), vehicle: saline with Tween-80): 91 % of control

CCOC(=O)C(NC(=O)OCc1ccccc1)(OCc1ccccc1)C(C)C (stereo not drawn)
T/C [16]: 97 % of control
T/C [17]: 105 % of control
T/C (dose: 400.0 mg/kg/injection, schedule: Q04DX003 (ip), vehicle: saline with Tween-80): 94 % of control

CN(C(=O)N(C)c1ccccc1)c1ccccc1
T/C [7]: 100 % of control
T/C [8]: 91 % of control
T/C [9]: 90 % of control
T/C [10]: 91 % of control
T/C [11]: 100 % of control
T/C [12]: 87 % of control

CC1(NC(=O)N(CCCl)N=O)CCCC1
T/C [16]: 272 % of control
T/C [17]: 90 % of control

S=c1c(S)c(S)c1=S
T/C (dose: 100.0 mg/kg/injection, schedule: Q04DX002 (ip), vehicle: saline): 100 % of control
T/C (dose: 200.0 mg/kg/injection, schedule: Q04DX002 (ip), vehicle: saline): 100 % of control
T/C (dose: 400.0 mg/kg/injection, schedule: Q04DX002 (ip), vehicle: saline): 100 % of control

CC1CC2OC(=O)C3=C2C(CCC3)C12CC(c1ccoc1)OC2=O (stereo not drawn)
T/C (dose: 25.0 mg/kg/injection, schedule: Q01DX001 (ip), vehicle: saline with Tween-80): 111 % of control
T/C (dose: 50.0 mg/kg/injection, schedule: Q01DX001 (ip), vehicle: saline with Tween-80): 106 % of control
T/C (dose: 100.0 mg/kg/injection, schedule: Q01DX001 (ip), vehicle: saline with Tween-80): 106 % of control
T/C (dose: 200.0 mg/kg/injection, schedule: Q01DX001 (ip), vehicle: saline with Tween-80): 116 % of control

CCOC(=O)/C=C(\C)SC1=CC(=O)c2ccccc2C1=O
T/C (dose: 3.13 mg/kg/injection, schedule: Q01DX009 (ip), vehicle: saline with Tween-80): 102 % of control
T/C (dose: 6.25 mg/kg/injection, schedule: Q01DX009 (ip), vehicle: saline with Tween-80): 104 % of control
T/C (dose: 12.5 mg/kg/injection, schedule: Q01DX009 (ip), vehicle: saline with Tween-80): 112 % of control
T/C (dose: 25.0 mg/kg/injection, schedule: Q01DX009 (ip), vehicle: saline with Tween-80): 104 % of control

Reference: PubChem BioAssay AID328 (DTP/NCI, 2004)
